From ChEMBL document CHEMBL1201862, “PubChem BioAssay data set” (2004)
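Briefly, cells in 96-well plates were exposed to five compound concentrations for 48 h, and endpoints were estimated by linear interpolation. Here, GI50 denotes the concentration required for 50% inhibition of growth.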 Active and inactive are the calls of the source. Rule as the data show it: active = GI50 up to about 1.1 µM and inactive = higher.

Tests used:
Assay in all cases: NCI-60 cell line screen, 48 h
786-0 = tested on: 786-0
SR = tested on: SR
NCI-H23 = tested on: NCI-H23
IGROV-1 = tested on: IGROV-1
A549 = tested on: A549
RPMI-8226 = tested on: RPMI-8226
MOLT-4 = tested on: MOLT-4
SK-OV-3 = tested on: SK-OV-3
LOX IMVI = tested on: LOX IMVI
DU-145 = tested on: DU-145
Hs-578T = tested on: Hs-578T
KM12 = tested on: KM12
SF-268 = tested on: SF-268
HT-29 = tested on: HT-29
OVCAR-5 = tested on: OVCAR-5
CCRF-CEM = tested on: CCRF-CEM
HL-60 = tested on: HL-60
HCT-116 = tested on: HCT-116
NCI-H226 = tested on: NCI-H226
RXF 393 = tested on: RXF 393

| Structure (SMILES) | GI50 (786-0) | GI50 (SR) | GI50 (NCI-H23) | GI50 (IGROV-1) | GI50 (A549) | GI50 (RPMI-8226) | GI50 (MOLT-4) | GI50 (SK-OV-3) | GI50 (LOX IMVI) | GI50 (DU-145) | GI50 (Hs-578T) | GI50 (KM12) | GI50 (SF-268) | GI50 (HT-29) | GI50 (OVCAR-5) | GI50 (CCRF-CEM) | GI50 (HL-60) | GI50 (HCT-116) | GI50 (NCI-H226) | GI50 (RXF 393) |
| --- | --- | --- | --- | --- | --- | --- | --- | --- | --- | --- | --- | --- | --- | --- | --- | --- | --- | --- | --- | --- |
| CN(C)CCNC(=O)c1cccc2nc3c(nc12)-c1ccccc1C3=O | 8.11 µM (inactive) | 1.14 µM (inactive) | 13.3 µM (inactive) | 20.9 µM (inactive) | 12.5 µM (inactive) | 7.38 µM (inactive) | 0.721 µM (active) | 26.7 µM (inactive) | 2.83 µM (inactive) | 29.9 µM (inactive) | 18.5 µM (inactive) | 10 µM (inactive) | 11.8 µM (inactive) | 6.76 µM (inactive) | 24.8 µM (inactive) | 2.56 µM (inactive) | 6.3 µM (inactive) | 12.7 µM (inactive) | 14.4 µM (inactive) | 16.8 µM (inactive) |
| CN(O)C(=S)c1ccccc1 | 1.38 µM (inactive) | 0.178 µM (active) | 1.91 µM (inactive) | 3.52 µM (inactive) | 4.26 µM (inactive) | 0.325 µM (active) | 0.325 µM (active) | 11.3 µM (inactive) | 1.57 µM (inactive) | 41.2 µM (inactive) | > 20.2 µM (inactive) | 5.86 µM (inactive) | 6.43 µM (inactive) | 0.312 µM (active) | 78.5 µM (inactive) | 0.105 µM (active) | 0.233 µM (active) | 1.49 µM (inactive) | 34.2 µM (inactive) | 3.19 µM (inactive) |
| CCN(CC)C(=O)Cn1c(-c2ccccc2)cc2ccccc21 | 45.1 µM (inactive) | 32.5 µM (inactive) | 44.4 µM (inactive) | 60.8 µM (inactive) | 33 µM (inactive) | > 10 µM (inactive) | 14.5 µM (inactive) | 40.8 µM (inactive) | 25.4 µM (inactive) | 56 µM (inactive) | 33.5 µM (inactive) | 38.3 µM (inactive) | 29 µM (inactive) | 29 µM (inactive) | 43.1 µM (inactive) | 24.3 µM (inactive) | 47.4 µM (inactive) | 24.8 µM (inactive) | 42.7 µM (inactive) | 22.9 µM (inactive) |
| O=S1(=O)c2ccccc2NC(=S)N1c1ccccc1 | > 87.3 µM (inactive) | 44.8 µM (inactive) | 46.3 µM (inactive) | 2.45 µM (inactive) | 6.17 µM (inactive) | > 59.2 µM (inactive) | 29.5 µM (inactive) | > 100 µM (inactive) | 26.7 µM (inactive) | 87.1 µM (inactive) | 69.2 µM (inactive) | > 77.1 µM (inactive) | 71.1 µM (inactive) | > 13.4 µM (inactive) | 92.9 µM (inactive) | 54.1 µM (inactive) | 32 µM (inactive) | 45.3 µM (inactive) | 43.9 µM (inactive) | > 54.2 µM (inactive) |
| Cc1cn([C@H]2C[C@@H]3[C@@H](COC(CCl)N3O)O2)c(=O)[nH]c1=O (stereo partly drawn) | > 100 µM (inactive) | > 100 µM (inactive) | – | > 100 µM (inactive) | > 100 µM (inactive) | > 100 µM (inactive) | > 100 µM (inactive) | > 100 µM (inactive) | > 100 µM (inactive) | > 100 µM (inactive) | > 100 µM (inactive) | > 100 µM (inactive) | > 100 µM (inactive) | > 100 µM (inactive) | > 100 µM (inactive) | > 100 µM (inactive) | > 100 µM (inactive) | > 100 µM (inactive) | > 100 µM (inactive) | > 100 µM (inactive) |
| CC(C)(C)N(Cc1ccccc1)C(=O)/C=C\[S+]([O-])c1ccccc1 (stereo not drawn) | 1.83 µM (inactive) | 1.58 µM (inactive) | 2.86 µM (inactive) | 4.79 µM (inactive) | 11.5 µM (inactive) | 1.84 µM (inactive) | 2.03 µM (inactive) | 7.62 µM (inactive) | 1.73 µM (inactive) | 3.85 µM (inactive) | 2.07 µM (inactive) | 5.69 µM (inactive) | 2.07 µM (inactive) | 4.11 µM (inactive) | 13.6 µM (inactive) | 1.35 µM (inactive) | 2.1 µM (inactive) | 2.43 µM (inactive) | 5.07 µM (inactive) | 3.8 µM (inactive) |
| O=C1Nc2ccc(Br)cc2/C1=C/C(=O)c1ccccc1 | 1.67 µM (inactive) | 4.37 µM (inactive) | 10.2 µM (inactive) | 3.67 µM (inactive) | 16.1 µM (inactive) | 2.46 µM (inactive) | 2.64 µM (inactive) | 17.6 µM (inactive) | 1.93 µM (inactive) | 10.2 µM (inactive) | 17.7 µM (inactive) | 7.83 µM (inactive) | 19.5 µM (inactive) | 1.59 µM (inactive) | 22.5 µM (inactive) | 1.9 µM (inactive) | 2.83 µM (inactive) | 4.22 µM (inactive) | 13.9 µM (inactive) | 1.95 µM (inactive) |
| O=C1c2ccccc2C(=O)c2c1ccc1c3ccccc3n(-c3ccccc3)c21 | 21.3 µM (inactive) | 5.89 µM (inactive) | 15.4 µM (inactive) | 25.4 µM (inactive) | 27.7 µM (inactive) | 7.24 µM (inactive) | 2.3 µM (inactive) | > 100 µM (inactive) | 14.5 µM (inactive) | 18.7 µM (inactive) | 15 µM (inactive) | 29.2 µM (inactive) | 23 µM (inactive) | 16.7 µM (inactive) | 27 µM (inactive) | 2.85 µM (inactive) | 2.03 µM (inactive) | 19.7 µM (inactive) | 26.1 µM (inactive) | 14.1 µM (inactive) |
| CCO[C@H]1O[C@@H]2OC3(C)CCC4[C@H](C)CCC([C@H]1C)[C@]42OO3 (stereo partly drawn) | 57.5 µM (inactive) | 10.3 µM (inactive) | 32.1 µM (inactive) | > 73.8 µM (inactive) | 40.8 µM (inactive) | 3.3 µM (inactive) | 7.91 µM (inactive) | > 100 µM (inactive) | 24.2 µM (inactive) | > 100 µM (inactive) | 29.9 µM (inactive) | > 53.2 µM (inactive) | > 100 µM (inactive) | 61.2 µM (inactive) | > 30.2 µM (inactive) | 3.44 µM (inactive) | 0.159 µM (active) | 35.2 µM (inactive) | > 100 µM (inactive) | > 100 µM (inactive) |
| C=C1CCCC(C)(C)C1CCC1(C)CCC(C(C)C(=O)OC)OO1 (stereo not drawn) | 0.36 µM (active) | 3.02 µM (inactive) | 3.78 µM (inactive) | 0.63 µM (active) | 1.28 µM (inactive) | 5.56 µM (inactive) | 8.11 µM (inactive) | 4.4 µM (inactive) | 0.471 µM (active) | 4.35 µM (inactive) | 5.57 µM (inactive) | 0.948 µM (active) | 3.57 µM (inactive) | 2.04 µM (inactive) | 6.75 µM (inactive) | 2.43 µM (inactive) | 2.21 µM (inactive) | 8.45 µM (inactive) | 6.18 µM (inactive) | 4.04 µM (inactive) |
| CC(=O)Nc1ccc(/C=C/[N+](=O)[O-])cc1 | 2.61 µM (inactive) | 0.404 µM (active) | 3.09 µM (inactive) | 2.37 µM (inactive) | 4.47 µM (inactive) | 1.66 µM (inactive) | 1.96 µM (inactive) | 8.93 µM (inactive) | 1.71 µM (inactive) | 5.11 µM (inactive) | 4.85 µM (inactive) | 5.68 µM (inactive) | 4.67 µM (inactive) | 1.85 µM (inactive) | 2.58 µM (inactive) | 2.33 µM (inactive) | 2.84 µM (inactive) | 2.42 µM (inactive) | 1.67 µM (inactive) | 2.07 µM (inactive) |
| Oc1ccc2c(c1)-c1c(c3ccccc3n1CCN1CCOCC1)CC2 | 33.7 µM (inactive) | > 100 µM (inactive) | 27.9 µM (inactive) | 15.3 µM (inactive) | – | > 100 µM (inactive) | > 100 µM (inactive) | 27.5 µM (inactive) | 39.7 µM (inactive) | 46 µM (inactive) | 63.4 µM (inactive) | 20 µM (inactive) | 59.4 µM (inactive) | 39.6 µM (inactive) | 23.9 µM (inactive) | > 100 µM (inactive) | > 100 µM (inactive) | 31.4 µM (inactive) | 24.6 µM (inactive) | 66.7 µM (inactive) |
| COC(=O)[C@]12CC[C@H]3CN(C(=O)OCc4ccccc4)[C@H]([C@H]31)[C@H](C(=O)OCC[Si](C)(C)C)N2S(=O)(=O)c1ccc(C)cc1 | > 100 µM (inactive) | 39.2 µM (inactive) | > 100 µM (inactive) | > 100 µM (inactive) | 18.4 µM (inactive) | 8.45 µM (inactive) | 19.5 µM (inactive) | > 100 µM (inactive) | 94.4 µM (inactive) | > 100 µM (inactive) | > 100 µM (inactive) | 97.3 µM (inactive) | > 100 µM (inactive) | 42.7 µM (inactive) | > 100 µM (inactive) | 54 µM (inactive) | 8.85 µM (inactive) | 23 µM (inactive) | > 100 µM (inactive) | 4.74 µM (inactive) |
| CCCC(=O)OC[n+]1ccc(-c2c(COC(=O)NC(C)C)c(COC(=O)NC(C)C)c3n2CCC3)cc1 | 51.9 µM (inactive) | 4.99 µM (inactive) | > 100 µM (inactive) | > 100 µM (inactive) | > 100 µM (inactive) | > 100 µM (inactive) | 41.5 µM (inactive) | > 100 µM (inactive) | > 100 µM (inactive) | 31.2 µM (inactive) | > 100 µM (inactive) | > 100 µM (inactive) | 65.8 µM (inactive) | > 100 µM (inactive) | > 100 µM (inactive) | 44.6 µM (inactive) | 33.3 µM (inactive) | > 100 µM (inactive) | > 100 µM (inactive) | 34.5 µM (inactive) |
